Data reported in patent US5234907A, “Synthetic vasoactive intestinal peptide analogs” (Hoffmann-La Roche Inc., priority 1991, dated 1993).
pEC50: −log10 of the molar value. *1 amine or outer side, *2 acyl side, *3 side chain or, on linkers, in order; H or OH if unused. [ ]: non-standard residue; d: D form. Cys(Acm) = CC(=O)NCSC[C@H](N[*:1])C(=O)[*:2]; Phe(4-F) = N[C@@H](Cc1ccc(F)cc1)C(=O)O; 2Nal = N[C@@H](Cc1ccc2ccccc2c1)C(=O)O; Nle = CCCC[C@H](N)C(=O)O; Orn = NCCC[C@H](N)C(=O)O

Assays:
guinea pigs = assay: In vivo bronchodilator activity by tracheal instillation against histamine-induced bronchoconstriction; set-up: species or system guinea pig; details: 100 μl, anesthetized male Hartley guinea pigs, histamine challenge 50 μg/kg i.v., inhibition of tracheal pressure increase
Experimental: The in vivo bronchodilator activity of VIP analogs in guinea pigs was assessed by the tracheal instillation route of administration. This technique utilized male guinea pigs (Hartley strain, Charles River) weighing 400-600 g. Animals were anesthetized with urethane (2 g/kg) intraperitoneally and a polyethylene cannula was inserted into the jugular vein for intravenous drug administration.
The animals were tracheotomized and dosing solutions of distilled water or test compound dissolved in distilled water were administered into the trachea, approximately three-quarter the distance to the carina with a pipette. The concentration of the dosing solution was adjusted to deliver a constant volume of 100 μl. The animals were placed supine for one minute to aid drug delivery to the lung. One minute later, spontaneous breathing was arrested with succinylcholine chloride (1.2 mg/kg) administered intravenously, and the animals were ventilized with a Harvard Model 680 small animal respirator set at 40 breaths/min and 4.0 cm^3 stoke volume. The animals were challenged with a maximal constrictory dose of histamine (50 μg/kg, i.v.) and tracheal pressure (cm of water) was recorded from a Statham pressure transducer (P 32 AA).
The change in tracheal pressure was averaged for at least 3 control and 3 drug-treated animals and percent inhibition was calculated. The relative potency of compounds administered by the instillation route was determined by administering various doses of test compound and calculating the median inhibitory dose (ID50 value). The ID50 was determined from log dose-reasons curves generated by at least 3 doses that caused inhibitory effects between 10% and 90%. The correlation coefficient for the regression line of each antagonist was always greater than 0.95.
For determination of the time course of inhibition for various compounds, the time between administration of compound and challenge with histamine was varied. The time course of activity was calculated as the time when inhibition decreased to 40%.

[1] = tested on: guinea pig tracheal smooth muscle; assay: Tracheal relaxant activity of VIP analogs on isolated guinea pig tracheal rings; type: cell-based; details: cumulative concentration response; responses as % of maximum response to VIP (10^-6 M=100%); at least three tissues pooled; linear regression
Experimental: The relaxant activity of the VIP analogs was studied in a model utilizing guinea pig trachea. [Wasserman, M. A. et al., in Vasoactive Intestinal Peptide, S. I. Said, ed., Raven Press, N.Y. 1982, pp 177-184]; All tissues were taken from male albino guinea pig weighing 400-600 g, anesthesized with urethane (2 g/kg, i.p.). After exanguination, the trachea were removed and divided into four ring segments (3 mm length). Each ring was suspended by 30 gauge stainless steel wires in a 10 mL jacketed tissue bath and attached via 4-0 silk thread to a Grass force displacement transducer (model FT03C, Grass Instruments Co., Quincy, Ma), for isometric recording of tension. The smooth muscle was bathed in modified Krebs solution of the following composition: NaCl, 120 mM; KCl, 4.7 mM; CaCl2, 2.5 mM; MgSO.4 7H2 O, 1.2 mM; NaHCO3, 25 mM; K2 HPO4 monobasic, 1.2 mM; and dextrose, 10 mM. Tissue baths were maintained at 37° C. and constantly bubbled with 95% O2 and 5% CO2. Responses were recorded on an 8 channel and a 4 channel Hewlett-Packard (model 7702B and 7754A, respectively) recorder (Hewlett-Packard, Paramus, N.J.). […] Frequent readjustments of tension were required during the 60 minute stabilization period which followed. Tissues were rinsed at 15 minute intervals.
Cumulative concentration response curves were obtained for each tissue by successive […] increases in the bath concentration of VIP or VIP analogs according to the method of VanRossum [Arch. Int. Pharmacodyn., 143, 299-330 (1963)]. Only one cumulative dose response curve was obtained on a single tissue. To minimize variability between tissues, relaxant responses were expressed as a percentage of the maximum response obtained to VIP (10^-6 M=100%) added at the end of each concentration response experiment. Responses obtained from at least three tissues were pooled and EC50 values were determined by linear regression.

“Ac--[2-Nal^10, Lys^12, Nle^17, Ala^19, Val^26, Thr^28, Gly^29,30, Met^31 ]--VIP (Ac-HSDAVFTDN[2Nal]TKLRKQ[Nle]AAKKYLNSVLTGGM-NH2; SMILES CCCC[C@H](NC(=O)[C@H](CCC(N)=O)NC(=O)[C@H](CCCCN)NC(=O)[C@H](CCCNC(=N)N)NC(=O)[C@H](CC(C)C)NC(=O)[C@H](CCCCN)NC(=O)[C@@H](NC(=O)[C@H](Cc1ccc2ccccc2c1)NC(=O)[C@H](CC(N)=O)NC(=O)[C@H](CC(=O)O)NC(=O)[C@@H](NC(=O)[C@H](Cc1ccccc1)NC(=O)[C@@H](NC(=O)[C@H](C)NC(=O)[C@H](CC(=O)O)NC(=O)[C@H](CO)NC(=O)[C@H](Cc1c[nH]cn1)NC(C)=O)C(C)C)[C@@H](C)O)[C@@H](C)O)C(=O)N[C@@H](C)C(=O)N[C@@H](C)C(=O)N[C@@H](CCCCN)C(=O)N[C@@H](CCCCN)C(=O)N[C@@H](Cc1ccc(O)cc1)C(=O)N[C@@H](CC(C)C)C(=O)N[C@@H](CC(N)=O)C(=O)N[C@@H](CO)C(=O)N[C@H](C(=O)N[C@@H](CC(C)C)C(=O)N[C@H](C(=O)NCC(=O)NCC(=O)N[C@@H](CCSC)C(N)=O)[C@@H](C)O)C(C)C) [Ac--(SEQ ID NO: 18)--NH2]” was tested, and the “Bronchodilator activity in guinea pigs, ED50” value (“Bronchodilator activity” below) (guinea pigs) was 0.35 µg and the pEC50 [1] was 9.62.
In the case of “Ac--[p-F--Phe^6, Glu^8, Lys^12, Nle^17, Ala^25, Leu^26, Lys^27,28, Gly^29,30, Thr^31 ]--VIP (Ac-HSDAV[Phe(4-F)]TENYTKLRKQ[Nle]AVKKYLNALKKGGT-NH2; SMILES CCCC[C@H](NC(=O)[C@H](CCC(N)=O)NC(=O)[C@H](CCCCN)NC(=O)[C@H](CCCNC(=N)N)NC(=O)[C@H](CC(C)C)NC(=O)[C@H](CCCCN)NC(=O)[C@@H](NC(=O)[C@H](Cc1ccc(O)cc1)NC(=O)[C@H](CC(N)=O)NC(=O)[C@H](CCC(=O)O)NC(=O)[C@@H](NC(=O)[C@H](Cc1ccc(F)cc1)NC(=O)[C@@H](NC(=O)[C@H](C)NC(=O)[C@H](CC(=O)O)NC(=O)[C@H](CO)NC(=O)[C@H](Cc1c[nH]cn1)NC(C)=O)C(C)C)[C@@H](C)O)[C@@H](C)O)C(=O)N[C@@H](C)C(=O)N[C@H](C(=O)N[C@@H](CCCCN)C(=O)N[C@@H](CCCCN)C(=O)N[C@@H](Cc1ccc(O)cc1)C(=O)N[C@@H](CC(C)C)C(=O)N[C@@H](CC(N)=O)C(=O)N[C@@H](C)C(=O)N[C@@H](CC(C)C)C(=O)N[C@@H](CCCCN)C(=O)N[C@@H](CCCCN)C(=O)NCC(=O)NCC(=O)N[C@H](C(N)=O)[C@@H](C)O)C(C)C) [Ac--(SEQ ID NO: 17)--NH2]”, the “Bronchodilator activity” value (guinea pigs) was 0.12 µg and the pEC50 [1] was 9.48.
With “Ac--[Leu^5, p-F--Phe^6, Glu^8, Orn^12, Ala^17,19, Thr^25, Val^26, Thr^28, Gly^29,30, Cys(Acm)^31 ]--VIP (Ac-HSDAL[Phe(4-F)]TENYT[Orn]LRKQAAAKKYLNTVLTGG[Cys(Acm)]-NH2; SMILES CC(=O)NCSC[C@H](NC(=O)CNC(=O)CNC(=O)[C@@H](NC(=O)[C@H](CC(C)C)NC(=O)[C@@H](NC(=O)[C@@H](NC(=O)[C@H](CC(N)=O)NC(=O)[C@H](CC(C)C)NC(=O)[C@H](Cc1ccc(O)cc1)NC(=O)[C@H](CCCCN)NC(=O)[C@H](CCCCN)NC(=O)[C@H](C)NC(=O)[C@H](C)NC(=O)[C@H](C)NC(=O)[C@H](CCC(N)=O)NC(=O)[C@H](CCCCN)NC(=O)[C@H](CCCNC(=N)N)NC(=O)[C@H](CC(C)C)NC(=O)[C@H](CCCN)NC(=O)[C@@H](NC(=O)[C@H](Cc1ccc(O)cc1)NC(=O)[C@H](CC(N)=O)NC(=O)[C@H](CCC(=O)O)NC(=O)[C@@H](NC(=O)[C@H](Cc1ccc(F)cc1)NC(=O)[C@H](CC(C)C)NC(=O)[C@H](C)NC(=O)[C@H](CC(=O)O)NC(=O)[C@H](CO)NC(=O)[C@H](Cc1c[nH]cn1)NC(C)=O)[C@@H](C)O)[C@@H](C)O)[C@@H](C)O)C(C)C)[C@@H](C)O)C(N)=O) [Ac--(SEQ ID NO: 13)--NH2]” the “Bronchodilator activity” value (guinea pigs) was 0.09 µg and the pEC50 [1] was 9.17.
With “Ac--[p-F--Phe^6, Glu^8, Lys^12, Nle^17, Val^26, Thr^28, Gly^29,30, Thr^31 ]--VIP (Ac-HSDAV[Phe(4-F)]TENYTKLRKQ[Nle]AVKKYLNSVLTGGT-NH2; SMILES CCCC[C@H](NC(=O)[C@H](CCC(N)=O)NC(=O)[C@H](CCCCN)NC(=O)[C@H](CCCNC(=N)N)NC(=O)[C@H](CC(C)C)NC(=O)[C@H](CCCCN)NC(=O)[C@@H](NC(=O)[C@H](Cc1ccc(O)cc1)NC(=O)[C@H](CC(N)=O)NC(=O)[C@H](CCC(=O)O)NC(=O)[C@@H](NC(=O)[C@H](Cc1ccc(F)cc1)NC(=O)[C@@H](NC(=O)[C@H](C)NC(=O)[C@H](CC(=O)O)NC(=O)[C@H](CO)NC(=O)[C@H](Cc1c[nH]cn1)NC(C)=O)C(C)C)[C@@H](C)O)[C@@H](C)O)C(=O)N[C@@H](C)C(=O)N[C@H](C(=O)N[C@@H](CCCCN)C(=O)N[C@@H](CCCCN)C(=O)N[C@@H](Cc1ccc(O)cc1)C(=O)N[C@@H](CC(C)C)C(=O)N[C@@H](CC(N)=O)C(=O)N[C@@H](CO)C(=O)N[C@H](C(=O)N[C@@H](CC(C)C)C(=O)N[C@H](C(=O)NCC(=O)NCC(=O)N[C@H](C(N)=O)[C@@H](C)O)[C@@H](C)O)C(C)C)C(C)C) [Ac--(SEQ ID NO: 14)--NH2]” the “Bronchodilator activity” value (guinea pigs) was 0.1 µg and the pEC50 [1] was 9.49.
“Ac--[Glu^8, Lys^12, Nle^17, Ala^19, Ala^25, Leu^26, Lys^27,28, Ala^29-31 ]--VIP (Ac-HSDAVFTENYTKLRKQ[Nle]AAKKYLNALKKAAA-NH2; SMILES CCCC[C@H](NC(=O)[C@H](CCC(N)=O)NC(=O)[C@H](CCCCN)NC(=O)[C@H](CCCNC(=N)N)NC(=O)[C@H](CC(C)C)NC(=O)[C@H](CCCCN)NC(=O)[C@@H](NC(=O)[C@H](Cc1ccc(O)cc1)NC(=O)[C@H](CC(N)=O)NC(=O)[C@H](CCC(=O)O)NC(=O)[C@@H](NC(=O)[C@H](Cc1ccccc1)NC(=O)[C@@H](NC(=O)[C@H](C)NC(=O)[C@H](CC(=O)O)NC(=O)[C@H](CO)NC(=O)[C@H](Cc1c[nH]cn1)NC(C)=O)C(C)C)[C@@H](C)O)[C@@H](C)O)C(=O)N[C@@H](C)C(=O)N[C@@H](C)C(=O)N[C@@H](CCCCN)C(=O)N[C@@H](CCCCN)C(=O)N[C@@H](Cc1ccc(O)cc1)C(=O)N[C@@H](CC(C)C)C(=O)N[C@@H](CC(N)=O)C(=O)N[C@@H](C)C(=O)N[C@@H](CC(C)C)C(=O)N[C@@H](CCCCN)C(=O)N[C@@H](CCCCN)C(=O)N[C@@H](C)C(=O)N[C@@H](C)C(=O)N[C@@H](C)C(N)=O) [Ac--(SEQ ID NO: 21)--NH2]” was tested, and the “Bronchodilator activity” value (guinea pigs) was 0.03 µg and the pEC50 [1] was 10.00.
“Ac--[p-F--Phe^6, Glu^8, Lys^12, Nle^17, Ala^19, Val^26, Thr^28, Gly^29,30, Cys(Acm)^31 ]--VIP (Ac-HSDAV[Phe(4-F)]TENYTKLRKQ[Nle]AAKKYLNSVLTGG[Cys(Acm)]-NH2; SMILES CCCC[C@H](NC(=O)[C@H](CCC(N)=O)NC(=O)[C@H](CCCCN)NC(=O)[C@H](CCCNC(=N)N)NC(=O)[C@H](CC(C)C)NC(=O)[C@H](CCCCN)NC(=O)[C@@H](NC(=O)[C@H](Cc1ccc(O)cc1)NC(=O)[C@H](CC(N)=O)NC(=O)[C@H](CCC(=O)O)NC(=O)[C@@H](NC(=O)[C@H](Cc1ccc(F)cc1)NC(=O)[C@@H](NC(=O)[C@H](C)NC(=O)[C@H](CC(=O)O)NC(=O)[C@H](CO)NC(=O)[C@H](Cc1c[nH]cn1)NC(C)=O)C(C)C)[C@@H](C)O)[C@@H](C)O)C(=O)N[C@@H](C)C(=O)N[C@@H](C)C(=O)N[C@@H](CCCCN)C(=O)N[C@@H](CCCCN)C(=O)N[C@@H](Cc1ccc(O)cc1)C(=O)N[C@@H](CC(C)C)C(=O)N[C@@H](CC(N)=O)C(=O)N[C@@H](CO)C(=O)N[C@H](C(=O)N[C@@H](CC(C)C)C(=O)N[C@H](C(=O)NCC(=O)NCC(=O)N[C@@H](CSCNC(C)=O)C(N)=O)[C@@H](C)O)C(C)C) [Ac--(SEQ ID NO: 67)--NH2]” was tested, and the “Bronchodilator activity” value (guinea pigs) was 0.30 µg and the pEC50 [1] was 8.72.
